Data: patent publication US11325899B2, “Benzofurane and benzothiophene derivatives as PGE2 receptor modulators” (IDORSIA PHARMACEUTICALS LTD, priority 2017, dated 2022)
pIC50: −log10 of the molar value.

Legend:
PTGER2 (EP2) = target: T1, PTGER2 (EP2) (Homo sapiens, UniProt P43116); assay: hEP2 b-arrestin assay (PathHunter HEK 293 PTGER2 b-arrestin cells); assay type: cell-based; details: antagonistic activity, beta-arrestin assay; read-out: hEP2 b-arr IC50
T1 construct: host or cells: HEK 293 (PathHunter PTGER2 b-arrestin cell line)
T1 sequence (P43116 whole entry): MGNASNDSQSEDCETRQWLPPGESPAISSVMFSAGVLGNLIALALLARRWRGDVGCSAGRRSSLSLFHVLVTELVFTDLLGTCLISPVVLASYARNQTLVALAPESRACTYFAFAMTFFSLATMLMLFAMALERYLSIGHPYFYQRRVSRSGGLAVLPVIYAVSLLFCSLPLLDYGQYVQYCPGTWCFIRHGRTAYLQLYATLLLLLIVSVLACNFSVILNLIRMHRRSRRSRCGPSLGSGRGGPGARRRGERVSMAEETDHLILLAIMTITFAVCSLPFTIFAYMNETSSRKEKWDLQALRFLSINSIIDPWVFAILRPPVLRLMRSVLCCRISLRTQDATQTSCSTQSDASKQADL
Method: (§1) The antagonistic activities of the compounds of formula (I) on the EP2 and EP4 receptors are determined in accordance with the following experimental method.
(§2) The assay is using the PathHunter™ HEK 293 PTGER2 and PTGER4 b-arrestin cell lines from DiscoverX. The system is based on the Enzyme Fragment Complementation Technology. Two complementing fragments of the b-galactosidase enzyme are expressed within stably transfected cells. The larger portion of b-gal, termed EA for Enzyme Acceptor, is fused to the C-terminus of b-arrestin 2. The smaller fragment, termed ProLink™ tag, is fused to PTGER2 (EP2) or PTRGER4 (EP4) at the C-terminus. Upon activation, b-arrestin is recruited which forces the interaction of ProLink and EA, allowing complementation of the two fragments of b-gal and the formation of a functional enzyme which is capable of hydrolysing the substrate and generating a chemiluminescent signal.
(§3) The HEK 293 PTGER2 b-arrestin cells (DiscoverX 93-021-4C1) are detached from culture dishes with a cell dissociation buffer (Invitrogen, 13151-014), and collected in growing medium (GM: DMEM+Glutamax-I (Invitrogen 32430)/10% FCS, 1% Penicilin/streptomycin). 5000 cells per well of a 384 well plate (white with white bottom Greiner 781080) are seeded in 20 ul per well of GM. Plate is incubated at 37° C., 5% C02 for 24 hours.
(§4) Stock solutions of test compounds are made at a concentration of 10 mM in DMSO, and serially diluted in DMSO to concentrations required for inhibition dose response curves (tested concentration range 10 μM-2 nM or 1 μM-0.2 nM).
PGE2 (Cayman 14010, stock solution: 10 mM in DMSO) is used as agonist at 5 μM final concentration, corresponding to EC80.
Five microliters of diluted compounds are transferred into the assay plate. Plate is pre-incubated 15 minutes at 37° C. Then five microliters of PGE2 (final conc. 5 μM) are transferred into the assay plate. Plate is incubated 120 minutes at 37° C.
(§5) PathHunter Glo Detection Kit components are thawed and mix according to manufacturer's instructions: 1 part Galacton Star Substrate with 5 parts Emerald II™ Solution, and 19 parts of PathHunter Cell Assay Buffer, respectively. Twelve μl of reagent are transferred to the assay plate and incubate for 1 hour at room temperature in the dark. Luminescence counts are read on a BMG Fluostar Optima reader according to manufacturer's instructions.
(§6) For each compound concentration calculate of the percentage of activity compared to DMSO control value as average±STDEV. (each concentration is measured in duplicate)
(§7) IC50 values and curves are generated with XLfit software (IDBS) using Dose-Response One Site model 203. When compounds were measured multiple times, mean values are given.

PTGER4 (EP4) = target: T2, PTGER4 (EP4) (Homo sapiens, UniProt P35408); assay: hEP4 b-arrestin assay (PathHunter HEK 293 PTGER4 b-arrestin cells); assay type: cell-based; details: antagonistic activity, beta-arrestin assay; read-out: hEP4 b-arr IC50
T2 construct: host or cells: HEK 293 (PathHunter PTGER4 b-arrestin cell line)
T2 sequence (P35408 whole entry): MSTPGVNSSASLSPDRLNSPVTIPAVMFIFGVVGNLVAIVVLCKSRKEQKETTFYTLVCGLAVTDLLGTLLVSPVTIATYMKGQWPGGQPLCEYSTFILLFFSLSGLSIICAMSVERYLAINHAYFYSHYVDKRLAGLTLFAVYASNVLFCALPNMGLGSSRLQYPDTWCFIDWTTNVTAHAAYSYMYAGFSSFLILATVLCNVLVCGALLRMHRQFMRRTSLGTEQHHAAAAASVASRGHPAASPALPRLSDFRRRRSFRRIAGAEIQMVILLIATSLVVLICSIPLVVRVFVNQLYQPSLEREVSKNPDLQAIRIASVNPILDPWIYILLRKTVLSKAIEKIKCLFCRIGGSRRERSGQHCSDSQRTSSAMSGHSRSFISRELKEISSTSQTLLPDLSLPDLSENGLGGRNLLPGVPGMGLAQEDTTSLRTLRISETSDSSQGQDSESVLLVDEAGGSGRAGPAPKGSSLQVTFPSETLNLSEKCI
Method: as §1, §2
as §3, with “PTGER4” for “PTGER2”, “93-030-4C1)” for “93-021-4C1)”
as §4
PGE2 (Cayman 14010, stock solution: 100 uM in DMSO) is used as agonist at 20 nM final concentration, corresponding to EC80.
Five microliters of diluted compounds are transferred into the assay plate. Plate is pre-incubated 15 minutes at 37° C. Then five microliters of PGE2 (final conc. 20 nM) are transferred into the assay plate. Plate is incubated 120 minutes at 37° C.
as §5, §6, §7

Row | SMILES | pIC50 (PTGER2 (EP2)) | pIC50 (PTGER4 (EP4))
1 | Cc1sc2c(C)cc(F)cc2c1CCNc1cc(-c2ccc(-c3noc(=O)[nH]3)cc2)ncn1 [Example 177, 3-(4-{6-[2-(5-Fluoro-2,7-dimethyl-benzo[b]thiophen-3-yl)-ethylamino]-pyrimidin-4-yl}-phenyl)-[1,2,4]oxadiazol-5(4H)-one [tautomeric form: 3-(4-{6-[2-(5-Fluoro-2,7-dimethyl-benzo[b]thiophen-3-yl)-ethylamino]-pyrimidin-4-yl}-phenyl)-[1,2,4]oxadiazol-5-ol]] | 7.33 | 6.67
2 | Cc1sc2c(C)cc(F)cc2c1CCNc1cc(-c2ccc(C(N)=O)cc2)ncn1 [Example 178, 4-{6-[2-(5-Fluoro-2,7-dimethyl-benzo[b]thiophen-3-yl)-ethylamino]-pyrimidin-4-yl}-benzamide] | 7.32 | 6.48
3 | CCSc1cc(-c2cc(NCCc3c(C)sc4c(C)cc(F)cc34)ncn2)ccc1C(=O)O [Example 179, 2-Ethylsulfanyl-4-{6-[2-(5-fluoro-2,7-dimethyl-benzo[b]thiophen-3-yl)-ethylamino]-pyrimidin-4-yl}-benzoic acid] | 8.10 | 6.74
4 | CCc1cc(-c2cc(NCCc3c(C)sc4c(C)cc(F)cc34)ncn2)ccc1C(=O)OC [Example 181, 2-Ethyl-4-{6-[2-(5-fluoro-2,7-dimethyl-benzo[b]thiophen-3-yl)-ethylamino]-pyrimidin-4-yl}-benzoic acid methyl ester] | 6.90 | 6.37
5 | Cc1sc2c(C)cc(F)cc2c1CCNc1cc(-c2ccc3[nH]ccc3c2)ncn1 [Example 183, [2-(5-Fluoro-2,7-dimethyl-benzo[b]thiophen-3-yl)-ethyl]-[6-(1H-indol-5-yl)-pyrimidin-4-yl]-amine] | 7.40 | 6.68
6 | Cc1sc2c(C)cc(F)cc2c1CCNc1cc(-c2ccc(CC(=O)O)c(OC(F)(F)F)c2)ncn1 [Example 187, (4-{6-[2-(5-Fluoro-2,7-dimethyl-benzo[b]thiophen-3-yl)-ethylamino]-pyrimidin-4-yl}-2-trifluoromethoxy-phenyl)-acetic acid] | 7.10 | 6.37
7 | CCOc1cc(-c2cc(NCCc3c(C)sc4c(C)cc(F)cc34)ncn2)ccc1NC=O [Example 191, N-(2-Ethoxy-4-{6-[2-(5-fluoro-2,7-dimethyl-benzo[b]thiophen-3-yl)-ethylamino]-pyrimidin-4-yl}-phenyl)-formamide] | 7.35 | 6.87
8 | Cc1sc2c(C)cc(F)cc2c1CCNc1cc(-c2ccc(CC(=O)O)c(OC(C)C)c2)ncn1 [Example 192, (4-{6-[2-(5-Fluoro-2,7-dimethyl-benzo[b]thiophen-3-yl)-ethylamino]-pyrimidin-4-yl}-2-isopropoxy-phenyl)-acetic acid] | 7.14 | 6.58
9 | Cc1cc(-c2cc(NCCc3c(C)sc4c(C)cc(F)cc34)ncn2)cc(Cl)c1CC(=O)O [Example 198, (2-Chloro-4-{6-[2-(5-fluoro-2,7-dimethyl-benzo[b]thiophen-3-yl)-ethylamino]-pyrimidin-4-yl}-6-methyl-phenyl)-acetic acid] | 7.11 | 6.76
10 | CCOc1cc(-c2cc(NCCc3c(C)sc4c(C)cc(F)cc34)ncn2)[nH]c1C(=O)O [Example 199, 3-Ethoxy-5-{6-[2-(5-fluoro-2,7-dimethyl-benzo[b]thiophen-3-yl)-ethylamino]-pyrimidin-4-yl}-1 H-pyrrole-2-carboxylic acid] | 8.30 | 6.44
11 | CCn1cc(-c2cc(NCCc3c(C)sc4c(C)cc(F)cc34)ncn2)cc1C(=O)O [Example 200, 1-Ethyl-4-{6-[2-(5-fluoro-2,7-dimethyl-benzo[b]thiophen-3-yl)-ethylamino]-pyrimidin-4-yl}-1H-pyrrole-2-carboxylic acid] | 7.20 | 6.26
12 | COc1cc(-c2cc(NCCc3c(C)sc4c(C)cc(F)cc34)ncn2)ccc1-c1cc(O)no1 [Example 203, 5-(4-{6-[2-(5-Fluoro-2,7-dimethyl-benzo[b]thiophen-3-yl)-ethylamino]-pyrimidin-4-yl}-2-methoxy-phenyl)-isoxazol-3-ol [tautomeric form: 5-(4-(6-((2-(5-fluoro-2,7-dimethylbenzo[b]thiophen-3-yl)ethyl)amino)pyrimidin-4-yl)-2-methoxyphenyl)isoxazol-3(2H)-one]] | 7.80 | 6.62

Second part, the compound after the results:

Row | pIC50 (PTGER2 (EP2)) | pIC50 (PTGER4 (EP4)) | SMILES
13 | 8.10 | 6.12 | CSc1cc(-c2cc(NCCc3c(C#N)sc4ccccc34)ncn2)ccc1C(=O)O [Example 173, 4-{6-[2-(2-Cyano-benzo[b]thiophen-3-yl)-ethylamino]-pyrimidin-4-yl}-2-methylsulfanyl-benzoic acid]
14 | 6.87 | 6.14 | COc1cc(-c2cc(NCCc3c(C#N)sc4ccccc34)ncn2)ccc1CC(=O)O [Example 174, (4-{6-[2-(2-Cyano-benzo[b]thiophen-3-yl)-ethylamino]-pyrimidin-4-yl}-2-methoxy-phenyl)-acetic acid]
15 | 7.70 | 6.92 | Cc1sc2c(C)cc(F)cc2c1CCNc1cc(-c2ccc(-c3c(O)c(=O)c3=O)cc2)ncn1 [Example 180, 3-(4-{6-[2-(5-Fluoro-2,7-dimethyl-benzo[b]thiophen-3-yl)-ethylamino]-pyrimidin-4-yl}-phenyl)-4-hydroxy-cyclobut-3-ene-1,2-dione]
16 | 7.30 | 6.87 | CCc1cc(-c2cc(NCCc3c(C)sc4c(C)cc(F)cc34)ncn2)ccc1CC(=O)O [Example 185, (2-Ethyl-4-{6-[2-(5-fluoro-2,7-dimethyl-benzo[b]thiophen-3-yl)-ethylamino]-pyrimidin-4-yl}-phenyl)-acetic acid]
17 | 7.01 | 6.16 | Cc1sc2c(C)cc(F)cc2c1CCNc1cc(-c2ccc(NC=O)cc2)ncn1 [Example 188, N-(4-{6-[2-(5-Fluoro-2,7-dimethyl-benzo[b]thiophen-3-yl)-ethylamino]-pyrimidin-4-yl}-phenyl)-formamide]
18 | 7.74 | 6.18 | CCc1cc(-c2cc(NCCc3c(C)sc4c(C)cc(F)cc34)ncn2)ccc1C(=O)O [Example 193, 2-Ethyl-4-{6-[2-(5-fluoro-2,7-dimethyl-benzo[b]thiophen-3-yl)-ethylamino]-pyrimidin-4-yl}-benzoic acid]
19 | 7.07 | 6.84 | CCc1cc(-c2cc(NCCc3c(C)sc4c(C)cc(F)cc34)ncn2)sc1CC(=O)O [Example 197, (3-Ethyl-5-{6-[2-(5-fluoro-2,7-dimethyl-benzo[b]thiophen-3-yl)-ethylamino]-pyrimidin-4-yl}-thiophen-2-yl)-acetic acid]
20 | 7.47 | 6.45 | CCCn1cc(-c2cc(NCCc3c(C)sc4c(C)cc(F)cc34)ncn2)cc1C(=O)O [Example 201, 4-{6-[2-(5-Fluoro-2,7-dimethyl-benzo[b]thiophen-3-yl)-ethylamino]-pyrimidin-4-yl}-1-propyl-1H-pyrrole-2-carboxylic acid]
21 | 6.97 | 5.99 | Cc1sc2c(C)cc(F)cc2c1CCNc1cc(-c2ccc(/C=C/C(=O)O)cc2)ncn1 [Example 204, (E)-3-(4-{6-[2-(5-Fluoro-2,7-dimethyl-benzo[b]thiophen-3-yl)-ethylamino]-pyrimidin-4-yl}-phenyl)-acrylic acid]
